Test system: Puccinia recondita f. Sp. Tritici
Experiment: Fungicidal activity against Puccinia recondita f. sp. tritici / wheat / leaf disc preventative (brown rust)
Format: in vivo
Conditions: foliar, 200 ppm in the applied formulation, wheat leaf segments, preventative, compared to untreated control leaf disks, read-out: disease control
Protocol: Leaf disks or leaf segments of various plant species are cut from plants grown in a greenhouse. The cut leaf disks or segments are placed in multiwell plates (24-well format) onto water agar. The leaf disks are sprayed with a test solution before (preventative) or after (curative) inoculation. Compounds to be tested are prepared as DMSO solutions (max. 10 mg/ml) which are diluted to the appropriate concentration with 0.025% Tween20 just before spraying. The inoculated leaf disks or segments are incubated under defined conditions (temperature, relative humidity, light, etc.) according to the respective test system. A single evaluation of disease level is carried out 3 to 14 days after inoculation, depending on the pathosystem. Percent disease control relative to the untreated check leaf disks or segments is then calculated.
Fungicidal Activity Against Puccinia recondita f. Sp. Tritici/Wheat/Leaf Disc Preventative (Brown Rust)
Wheat leaf segments cv. Kanzler were placed on agar in multiwell plates (24-well format) and sprayed with the formulated test compound diluted in water. The leaf disks were inoculated with a spore suspension of the fungus 1 day after application. The inoculated leaf segments were incubated at 19° C. and 75% relative humidity (rh) under a light regime of 12 hours light/12 hours darkness in a climate cabinet and the activity of a compound was assessed as percent disease control compared to untreated when an appropriate level of disease damage appears in untreated check leaf segments (7 to 9 days after application).
The following compounds at 200 ppm in the applied formulation give at least 80% disease control in this test when compared to untreated control leaf disks under the same conditions, which show extensive disease development.

Compound | pest or weed control at 200 ppm [%]
CON(Cc1ccc(-c2noc(C(F)(F)F)n2)cc1)C(=O)C1C(C=C(Cl)Cl)C1(C)C (stereo not drawn) [Compound 1.62, 3-(2,2-dichlorovinyl)-N-methoxy-2,2-dimethyl-N-[[4-[5-(trifluoromethyl)-1,2,4-oxadiazol-3-yl]phenyl]methyl]-cyclopropane-carboxamide] | ≥ 80
O=C(Cc1ccc(C(F)(F)F)cc1)N(Cc1ccc(-c2noc(C(F)(F)F)n2)cc1)C1CC1 [Compound 1.140, N-cyclopropyl-N-[[4-[5-(trifluoromethyl)-1,2,4-oxadiazol-3-yl]phenyl]methyl]-2-[4-(trifluoromethyl)-phenyl]acetamide] | ≥ 80

Test system: Glomerella lagenarium (Colletotrichum lagenarium)
Experiment: Fungicidal activity against Glomerella lagenarium (Colletotrichum lagenarium) liquid culture / cucumber / preventative (anthracnose)
Format: cell-based
Conditions: Colletotrichum orbiculare; 20 ppm in the applied formulation; liquid culture (PDB), growth inhibition measured photometrically after 3 to 4 days; compared to untreated control; read-out: disease control
Outline: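 Percent activity against the untreated check was derived from photometric growth measurements made 2 to 7 days after conidia in potato dextrose broth were combined with compound at 20 ppm. Cultures were kept dark at 24 °C and 96% humidity.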

Compound | inhibition of growth at 20 ppm [%]
COC(C)C(=O)N(Cc1ccc(-c2noc(C(F)(F)F)n2)cc1)OCC=C(Cl)Cl (stereo not drawn) [Compound 1.546, N-(3,3-dichloroallyloxy)-2-methoxy-N-[[4-[5-(trifluoromethyl)-1,2,4-oxadiazol-3-yl]phenyl]methyl]-propanamide] | ≥ 80
O=C(C1OCCO1)N(Cc1ccc(-c2noc(C(F)(F)F)n2)cc1)OCC=C(Cl)Cl [Compound 1.547] | ≥ 80
O=C(C1CC1)N(Cc1ccc(-c2noc(C(F)(F)F)n2)cc1)OCC=C(Cl)Cl [Compound 1.548, N-(3,3-dichloroallyloxy)-N-[[4-[5-(trifluoromethyl)-1,2,4-oxadiazol-3-yl]phenyl]methyl]-cyclopropane-carboxamide] | ≥ 80
COCCC(=O)N(Cc1ccc(-c2noc(C(F)(F)F)n2)cc1)OCc1ccc(Cl)cc1 [Compound 1.549, N-[(4-chlorophenyl)-methoxy]-3-methoxy-N-[[4-[5-(trifluoromethyl)-1,2,4-oxadiazol-3-yl]phenyl]methyl]-propanamide] | ≥ 80
COCC(=O)N(Cc1ccc(-c2noc(C(F)(F)F)n2)cc1)OCc1ccc(Cl)cc1 [Compound 1.551, N-[(4-chlorophenyl)-methoxy]-2-methoxy-N-[[4-[5-(trifluoromethyl)-1,2,4-oxadiazol-3-yl]phenyl]methyl]-acetamide] | ≥ 80
O=C(CCl)N(Cc1ccc(-c2noc(C(F)(F)F)n2)cc1)OCc1ccc(Cl)cc1 [Compound 1.553, 2-chloro-N-[(4-chlorophenyl)-methoxy]-N-[[4-[5-(trifluoromethyl)-1,2,4-oxadiazol-3-yl]phenyl]methyl]-acetamide] | ≥ 80
CCCC(=O)N(Cc1ccc(-c2noc(C(F)(F)F)n2)cc1)OCc1ccc(Cl)cc1 [Compound 1.554, N-[(4-chlorophenyl)-methoxy]-N-[[4-[5-(trifluoromethyl)-1,2,4-oxadiazol-3-yl]phenyl]methyl]-butanamide] | ≥ 80
COCCCC(=O)N(Cc1ccc(-c2noc(C(F)(F)F)n2)cc1)OCc1ccc(Cl)cc1 [Compound 1.555, N-[(4-chlorophenyl)-methoxy]-4-methoxy-N-[[4-[5-(trifluoromethyl)-1,2,4-oxadiazol-3-yl]phenyl]methyl]-butanamide] | ≥ 80
CC1(C(=O)N(Cc2ccc(-c3noc(C(F)(F)F)n3)cc2)OCc2ccc(Cl)cc2)COC1 [Compound 1.556, N-[(4-chlorophenyl)-methoxy]-3-methyl-N-[[4-[5-(trifluoromethyl)-1,2,4-oxadiazol-3-yl]phenyl]methyl]-oxetane-3-carboxamide] | ≥ 80
O=C(C1CCCO1)N(Cc1ccc(-c2noc(C(F)(F)F)n2)cc1)OCc1ccc(Cl)cc1 (stereo not drawn) [Compound 1.557, N-[(4-chlorophenyl)-methoxy]-N-[[4-[5-(trifluoromethyl)-1,2,4-oxadiazol-3-yl]phenyl]methyl]-tetrahydrofuran-2-carboxamide] | ≥ 80
O=C(C1CC1F)N(Cc1ccc(-c2noc(C(F)(F)F)n2)cc1)OCc1ccc(Cl)cc1 (stereo not drawn) [Compound 1.558, N-[(4-chlorophenyl)-methoxy]-2-fluoro-N-[[4-[5-(trifluoromethyl)-1,2,4-oxadiazol-3-yl]phenyl]methyl]-cyclopropane-carboxamide] | ≥ 80
COC(C)C(=O)N(Cc1ccc(-c2noc(C(F)(F)F)n2)cc1)OCc1ccc(Cl)cc1 (stereo not drawn) [Compound 1.559, N-[(4-chlorophenyl)-methoxy]-2-methoxy-N-[[4-[5-(trifluoromethyl)-1,2,4-oxadiazol-3-yl]phenyl)methyl]-propanamide] | ≥ 80
O=C(C1OCCO1)N(Cc1ccc(-c2noc(C(F)(F)F)n2)cc1)OCc1ccc(Cl)cc1 [Compound 1.560, N-[(4-chlorophenyl)-methoxy]-N-[[4-[5-(trifluoromethyl)-1,2,4-oxadiazol-3-yl]phenyl]methyl]-1,3-dioxolane-2-carboxamide] | ≥ 80
O=C(C1CC1)N(Cc1ccc(-c2noc(C(F)(F)F)n2)cc1)OCc1ccc(Cl)cc1 [Compound 1.561, N-[(4-chlorophenyl)-methoxy]-N-[[4-[5-(trifluoromethyl)-1,2,4-oxadiazol-3-yl]phenyl]methyl]-cyclopropane-carboxamide] | ≥ 80
CCCCON(Cc1ccc(-c2noc(C(F)(F)F)n2)cc1)C(=O)CC [Compound 1.588, N-butoxy-N-[[4-[5-(trifluoromethyl)-1,2,4-oxadiazol-3-yl]phenyl]methyl]-propanamide] | ≥ 80
CCCCON(Cc1ccc(-c2noc(C(F)(F)F)n2)cc1)C(=O)C1CC1 [Compound 1.601, N-butoxy-N-[[4-[5-(trifluoromethyl)-1,2,4-oxadiazol-3-yl]phenyl]methyl]-cyclopropane-carboxamide] | ≥ 80
CCCCON(Cc1ccc(-c2noc(C(F)(F)F)n2)cc1)C(=O)C(C)C [Compound 1.633, N-butoxy-2-methyl-N-[[4-[5-(trifluoromethyl)-1,2,4-oxadiazol-3-yl]phenyl]methyl]-propanamide] | ≥ 80
CCCCON(Cc1ccc(-c2noc(C(F)(F)F)n2)cc1)C(=O)C1CCC1 [Compound 1.638, N-butoxy-N-[[4-[5-(trifluoromethyl)-1,2,4-oxadiazol-3-yl]phenyl]methyl]-cyclobutane-carboxamide] | ≥ 80
CCCCON(Cc1ccc(-c2noc(C(F)(F)F)n2)cc1)C(=O)CC1CC1 [Compound 1.650, N-butoxy-2-cydopropyl-N-[[4-[5-(trifluoromethyl)-1,2,4-oxadiazol-3-yl]phenyl]methyl]-acetamide] | ≥ 80
CON(Cc1ccc(-c2noc(C(F)(F)F)n2)cc1)C(=O)C(F)(F)F [Compound 1.780, 2,2,2-trifluoro-N-methoxy-N-[[4-[5-(trifluoromethyl)-1,2,4-oxadiazol-3-yl]phenyl]methyl]-acetamide] | ≥ 80
CON(Cc1ccc(-c2noc(C(F)(F)F)n2)cc1)C(=O)n1ccnc1 [Compound 1.811, N-methoxy-N-[[4-[5-(trifluoromethyl)-1,2,4-oxadiazol-3-yl]phenyl]methyl]-imidazole-1-carboxamide] | ≥ 80
CON(Cc1ccc(-c2noc(C(F)(F)F)n2)cc1)C(=O)OCC(C)C [Compound 2.8, isobutyl N-methoxy-N-[[4-[5-(trifluoromethyl)-1,2,4-oxadiazol-3-yl]phenyl]methyl]-carbamate] | ≥ 80
CCCCCOC(=O)N(Cc1ccc(-c2noc(C(F)(F)F)n2)cc1)OC [Compound 2.9, pentyl N-methoxy-N-[[4-[5-(trifluoromethyl)-1,2,4-oxadiazol-3-yl]phenyl]methyl]-carbamate] | ≥ 80
CON(Cc1ccc(-c2noc(C(F)(F)F)n2)cc1)C(=O)OCc1ccccc1 [Compound 2.10, benzyl N-methoxy-N-[[4-[5-(trifluoromethyl)-1,2,4-oxadiazol-3-yl]phenyl]methyl]-carbamate] | ≥ 80
CCCCOC(=O)N(Cc1ccc(-c2noc(C(F)(F)F)n2)cc1)OC [Compound 2.12, butyl N-methoxy-N-[[4-[5-(trifluoromethyl)-1,2,4-oxadiazol-3-yl]phenyl]methyl]-carbamate] | ≥ 80
CON(Cc1ccc(-c2noc(C(F)(F)F)n2)cc1)C(=O)OCCCCCl [Compound 2.13, 4-chlorobutyl N-methoxy-N-[[4-[5-(trifluoromethyl)-1,2,4-oxadiazol-3-yl]phenyl]methyl]-carbamate] | ≥ 80
CON(Cc1ccc(-c2noc(C(F)(F)F)n2)cc1)C(=O)OCC(C)(C)C [Compound 2.18, 2,2-dimethylpropyl N-methoxy-N-[[4-[5-(trifluoromethyl)-1,2,4-oxadiazol-3-yl]phenyl]methyl]-carbamate] | ≥ 80
CON(Cc1ccc(-c2noc(C(F)(F)F)n2)cc1)C(=O)OC(Cl)C(C)C (stereo not drawn) [Compound 2.19, (1-chloro-2-methyl-propyl) N-methoxy-N-[[4-[5-(trifluoromethyl)-1,2,4-oxadiazol-3-yl]phenyl]methyl]-carbamate] | ≥ 80
